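How tested: cells in 96-well plates exposed to compound for 48 hours at five concentrations. GI50: concentration for 50% inhibition of growth. TGI is the concentration that stops growth completely.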
Tests used:
Experiment in all cases: NCI tumour cell line growth inhibition, 48 h
[1] = test system: DU-145 prostate
[2] = test system: MDA-MB-435
[3] = test system: SF-295 CNS
[4] = test system: MDA-N
[5] = test system: NCI-H460 lung
[6] = test system: COLO 205 colon
[7] = test system: SN12C renal
[8] = test system: SK-MEL-5 melanoma
[9] = test system: UO-31 renal
[10] = test system: M14 melanoma
[11] = test system: CAKI-1 renal
[12] = test system: T-47D breast
[13] = test system: SW-620 colon
[14] = test system: A498 renal
[15] = test system: ACHN renal
[16] = test system: NCI/ADR-RES ovarian
[17] = test system: A549 NSCLC
[18] = test system: SNB-19 CNS
[19] = test system: SK-OV-3 ovarian
[20] = test system: HCT-116 colon
[21] = test system: MCF7 breast
[22] = test system: MOLT-4 leukemia
[23] = test system: OVCAR-4 ovarian
[24] = test system: K-562 leukemia
[25] = test system: PC-3 prostate
[26] = test system: SF-268 CNS
[27] = test system: HCC-2998 colon
[28] = test system: OVCAR-3 ovarian
[29] = test system: OVCAR-5 ovarian
[30] = test system: UACC-257 melanoma
[31] = test system: SNB-75 CNS
[32] = test system: HOP-62 NSCLC
[33] = test system: UACC-62 melanoma
[34] = test system: SK-MEL-28 melanoma
[35] = test system: OVCAR-8 ovarian
[36] = test system: SK-MEL-2 melanoma
[37] = test system: HOP-92 NSCLC
[38] = test system: NCI-H23 lung
[39] = test system: HL-60(TB) leukemia
[40] = test system: RPMI-8226 leukemia
[41] = test system: KM12 colon
[42] = test system: U251 CNS
[43] = test system: NCI-H226 lung
[44] = test system: LOX IMVI melanoma
[45] = test system: 786-0 renal
[46] = test system: MDA-MB-231 breast
[47] = test system: HCT-15 colon
[48] = test system: SR leukemia
[49] = test system: RXF 393 renal
[50] = test system: CCRF-CEM leukemia
[51] = test system: SF-539 CNS
[52] = test system: EKVX NSCLC
[53] = test system: TK-10 renal
[54] = test system: HS 578T breast
[55] = test system: HT29 colon
[56] = test system: BT-549 breast
[57] = test system: IGROV1 ovarian

In the case of `O=C(/C=C/c1ccc2ccccc2c1)NCc1ccc(C(=O)NCCc2ccccc2)cc1`, the TGI [1] is reported as > 100 µM, the TGI [2] is reported as > 100 µM and the TGI [3] is reported as > 100 µM. For the same molecule, the TGI [4] was > 100 µM, the TGI [5] was > 100 µM and the TGI [6] was > 100 µM. For the same molecule, the TGI [7] was > 100 µM, the TGI [8] was > 100 µM and the TGI [9] was > 100 µM. The TGI [10] was > 100 µM, the TGI [11] was > 100 µM and the TGI [12] was > 100 µM. The TGI [13] was > 100 µM, the TGI [14] was > 100 µM and the TGI [15] was > 100 µM. The TGI [16] was > 100 µM, the TGI [17] was > 100 µM and the TGI [18] was > 100 µM. The TGI [19] was > 100 µM, the TGI [20] was > 100 µM and the TGI [21] was > 100 µM. The TGI [22] was > 100 µM, the TGI [23] was > 100 µM and the TGI [24] was > 100 µM. The TGI [25] was > 100 µM, the TGI [26] was > 100 µM and the TGI [27] was > 100 µM. For the same molecule, the TGI [28] was > 100 µM, the TGI [29] was > 100 µM and the TGI [30] was > 100 µM. The TGI [31] was > 100 µM, the TGI [32] was > 100 µM and the TGI [33] was > 100 µM. For the same molecule, the TGI [34] was > 100 µM, the TGI [35] was > 100 µM and the TGI [36] was > 100 µM. For the same molecule, the TGI [37] was > 100 µM, the TGI [38] was > 100 µM and the TGI [39] was > 100 µM. The TGI [40] was > 100 µM, the TGI [41] was > 100 µM and the TGI [42] was > 100 µM. For the same molecule, the TGI [43] was > 100 µM, the TGI [44] was > 100 µM and the TGI [45] was > 100 µM. For the same molecule, the TGI [46] was > 100 µM, the TGI [47] was > 100 µM and the TGI [48] was > 100 µM. The TGI [49] was > 100 µM and the TGI [50] was > 100 µM.

`COc1cc2ncnc(-n3ncc4cc(NC(=O)Nc5ccccc5)ccc43)c2cc1OC` showed a GI50 [1] of 0.867 µM, a TGI [1] of 11.4 µM and a GI50 [2] of 1.4 µM. For the same molecule, the TGI [2] was 33.9 µM, the GI50 [3] was 0.73 µM and the TGI [3] was 5.87 µM. The GI50 [5] was 0.706 µM, the TGI [5] was 16.4 µM and the GI50 [6] was 1.32 µM. It also gave a TGI [6] of 4.53 µM, a GI50 [7] of 1.14 µM and a TGI [7] of 5.78 µM. It also gave a GI50 [8] of 5.22 µM, a TGI [8] of 21.3 µM and a GI50 [9] of 0.499 µM. It also gave a TGI [9] of 2.84 µM, a GI50 [10] of 1.1 µM and a TGI [10] of 4.22 µM. For the same molecule, the GI50 [51] was 0.23 µM, the TGI [51] was 17.3 µM and the GI50 [11] was 2.08 µM. The TGI [11] was 12.1 µM, the GI50 [12] was 0.183 µM and the TGI [12] was 1.37 µM. For the same molecule, the GI50 [13] was 3.07 µM, the TGI [13] was 17.9 µM and the GI50 [14] was 0.21 µM. The TGI [14] was 0.896 µM, the GI50 [52] was 1.59 µM and the TGI [52] was 7.3 µM. The GI50 [15] was 1.63 µM, the TGI [15] was 11.1 µM and the GI50 [16] was 2.52 µM. The TGI [16] was 17.6 µM, the GI50 [17] was 1.79 µM and the TGI [17] was 8.74 µM. For the same molecule, the GI50 [18] was 2.29 µM, the TGI [18] was 17.7 µM and the GI50 [19] was 0.42 µM. The TGI [19] was 4.6 µM, the GI50 [20] was 1.41 µM and the TGI [20] was 4.82 µM. For the same molecule, the GI50 [21] was 0.234 µM, the TGI [21] was 1.9 µM and the GI50 [22] was 0.86 µM. For the same molecule, the TGI [22] was 3.56 µM, the GI50 [23] was 1.01 µM and the TGI [23] was 4.26 µM. The GI50 [24] was 2.86 µM, the TGI [24] was 15.5 µM and the GI50 [25] was 1.09 µM. For the same molecule, the TGI [25] was 3.36 µM, the GI50 [26] was 1.55 µM and the TGI [26] was 11.2 µM. For the same molecule, the GI50 [27] was 1.88 µM, the TGI [27] was 11.2 µM and the GI50 [28] was 2.08 µM. It also gave a TGI [28] of 13.1 µM, a GI50 [29] of 1.24 µM and a TGI [29] of 13.8 µM. It also gave a GI50 [53] of 0.724 µM, a TGI [53] of 2.56 µM and a GI50 [30] of 2.32 µM. The TGI [30] was 5.13 µM, the GI50 [31] was 0.191 µM and the TGI [31] was 5.69 µM. It also gave a GI50 [32] of 1.3 µM, a GI50 [54] of 0.299 µM and a TGI [54] of 3.37 µM. It also gave a GI50 [33] of 1.23 µM, a TGI [33] of 6.27 µM and a GI50 [34] of 1.38 µM. It also gave a TGI [34] of 4.33 µM, a GI50 [35] of 5.17 µM and a TGI [35] of 28.3 µM. The GI50 [36] was 1.34 µM, the TGI [36] was 3.51 µM and the GI50 [37] was 0.707 µM. It also gave a TGI [37] of 4.15 µM, a GI50 [38] of 1.3 µM and a TGI [38] of 4.4 µM. For the same molecule, the GI50 [39] was 1.57 µM, the TGI [39] was 4.52 µM and the GI50 [40] was 0.934 µM. The TGI [40] was 12 µM, the GI50 [55] was 0.615 µM and the TGI [55] was 10.9 µM. It also gave a GI50 [41] of 0.207 µM, a TGI [41] of 5.27 µM and a GI50 [42] of 1.27 µM. For the same molecule, the TGI [42] was 3.23 µM, the GI50 [56] was 1.55 µM and the TGI [56] was 12 µM. The GI50 [43] was 1.07 µM, the TGI [43] was 4.06 µM and the GI50 [44] was 0.722 µM. It also gave a TGI [44] of 2.75 µM, a GI50 [45] of 1.3 µM and a TGI [45] of 4.34 µM. It also gave a GI50 [57] of 0.427 µM, a TGI [57] of 4.62 µM and a GI50 [46] of 1.39 µM. The TGI [46] was 4.92 µM, the GI50 [47] was 0.579 µM and the TGI [47] was 11.1 µM. It also gave a GI50 [48] of 2.03 µM, a TGI [48] of 15.3 µM and a GI50 [49] of 1.04 µM. It also gave a TGI [49] of 2.76 µM, a GI50 [50] of 2.56 µM and a TGI [50] of 13.6 µM.
